Measured values from patent publication US20250295690A1, “ORAL FORMULATION BASED ON A PRE-ESTABLISHED ASSOCIATION OF SULODEXIDE AND FLAVONOIDS FOR THE TREATMENT OF CHRONIC VENOUS INSUFFICIENCY AND PREVENTION OF COMPLICATIONS THEREOF” (priority 2021, published 2025).

What was measured:
[1] = system: human umbilical vein endothelial cells (HUVEC); assay: In vitro vascular permeability assay on a VEGF-treated HUVEC monolayer (FITC-dextran); type: cell-based; conditions: 50 ng/ml, 8 hours
Description: (§1) The direct effect on the vasal permeability of three compositions comprising Sulodexide+flavonoids was evaluated in vitro:
(§2) All tested compositions (i)-(iii) comprise a concentration of sulodexide equal to 0.25% and a concentration of diosmin, hesperidin or troxerutin, respectively, equal to 4.5% by weight with respect to the total weight of the composition.
(§3) The action of the compositions (i)-(iii) was compared with the action of the active principles Diosmin, Hesperidin, Troxerutin, 8% by weight, and glucosaminoglycan Sulodexide, 0.5% by weight, administered singularly.
(§4) The direct effect on the vasal permeability was evaluated by using endothelial cellular cultures miming the continuous mono-layer of the endothelium of the human vessels. Two cellular models were used: the human micro-vascular endothelial cells (HMVEC) to simulate the vessels of the microcirculation, and the human umbilical vein endothelial cells (HUVEC) to study the vasal endothelium. The cells of the lines HMVEC and HUVEC (3×10^5) were incubated for 72 hours at 37° C. on supports of semi-permeable membrane with pores having 1-μm diameter so as to form a continuous mono-layer wholly impermeable to the substance used as control, the fluorescein isothiocyanate (FITC) dextran. The vasal permeability was evaluated with the kit “The Millipore® In Vitro Vascular Permeability Assay”. […]

[2] = system: human micro-vascular endothelial cells (HMVEC); assay: In vitro vascular permeability assay on a VEGF-treated HMVEC monolayer (FITC-dextran); type: cell-based; conditions: HMVEC line, 50 ng/ml, 8 hours
Description: as §1, §2, §3, §4

## VEGF
[1]
  increase in permeability: 42%
[2]
  increase in permeability: 36%
